Results on 17 molecules are retold here after paper PMC6009943, “One-pot three-component synthesis of novel spirooxindoles with potential cytotoxic activity against triple-negative breast cancer MDA-MB-231 cells” (Journal of Enzyme Inhibition and Medicinal Chemistry, 2017).

One data set concerns MDA-MB-231 cells. In words: In vitro anti-proliferative activity assay (MTT). Particulars: Homo sapiens, 48 h incubation. The class given is cell-based. The procedure: Cells lines were maintained as monolayers in Dulbecco’s Modified Eagle’s Medium (DMEM) supplemented with 10% FBS, 2 mM L-glutamine, 100 U/ml penicillin and 100 µg/ml streptomycin sulfate. Cells were sub-cultured with trypsine/EDTA solution, counted with haemocytometer and plated onto 96-well plates (5000 cells/well) and left overnight to form a semi-confluent monolayer. […] DMSO (100 µl/well) was added to dissolve the formazan crystals with shaking for 10 min after which the absorbance was read at 590 nm against no cell blanks on a FLuo Star Optima microplate reader (BMG Technologies, Germany). Cell proliferation was calculated comparing the OD values of the DMSO control wells and those of the samples represented as % proliferation to the control.
The in vitro anti-proliferative activity of the newly synthesized spirooxindoles 6a–p was examined against TNBC MDA-MB-231 cells. This assay was performed utilizing the 3–(4,5-dimethylthiazol-2-yl)-2,5-diphenyltetrazolium bromide (MTT) colorimetric assay as described by Mosmann[18]. Adriamycin was included in this assay as a reference drug.

The target in another data set is T1, EGFR (Homo sapiens, UniProt P00533).
T1 construct: purchased BPS Biosciences 40321
T1 sequence (P00533 25-1210): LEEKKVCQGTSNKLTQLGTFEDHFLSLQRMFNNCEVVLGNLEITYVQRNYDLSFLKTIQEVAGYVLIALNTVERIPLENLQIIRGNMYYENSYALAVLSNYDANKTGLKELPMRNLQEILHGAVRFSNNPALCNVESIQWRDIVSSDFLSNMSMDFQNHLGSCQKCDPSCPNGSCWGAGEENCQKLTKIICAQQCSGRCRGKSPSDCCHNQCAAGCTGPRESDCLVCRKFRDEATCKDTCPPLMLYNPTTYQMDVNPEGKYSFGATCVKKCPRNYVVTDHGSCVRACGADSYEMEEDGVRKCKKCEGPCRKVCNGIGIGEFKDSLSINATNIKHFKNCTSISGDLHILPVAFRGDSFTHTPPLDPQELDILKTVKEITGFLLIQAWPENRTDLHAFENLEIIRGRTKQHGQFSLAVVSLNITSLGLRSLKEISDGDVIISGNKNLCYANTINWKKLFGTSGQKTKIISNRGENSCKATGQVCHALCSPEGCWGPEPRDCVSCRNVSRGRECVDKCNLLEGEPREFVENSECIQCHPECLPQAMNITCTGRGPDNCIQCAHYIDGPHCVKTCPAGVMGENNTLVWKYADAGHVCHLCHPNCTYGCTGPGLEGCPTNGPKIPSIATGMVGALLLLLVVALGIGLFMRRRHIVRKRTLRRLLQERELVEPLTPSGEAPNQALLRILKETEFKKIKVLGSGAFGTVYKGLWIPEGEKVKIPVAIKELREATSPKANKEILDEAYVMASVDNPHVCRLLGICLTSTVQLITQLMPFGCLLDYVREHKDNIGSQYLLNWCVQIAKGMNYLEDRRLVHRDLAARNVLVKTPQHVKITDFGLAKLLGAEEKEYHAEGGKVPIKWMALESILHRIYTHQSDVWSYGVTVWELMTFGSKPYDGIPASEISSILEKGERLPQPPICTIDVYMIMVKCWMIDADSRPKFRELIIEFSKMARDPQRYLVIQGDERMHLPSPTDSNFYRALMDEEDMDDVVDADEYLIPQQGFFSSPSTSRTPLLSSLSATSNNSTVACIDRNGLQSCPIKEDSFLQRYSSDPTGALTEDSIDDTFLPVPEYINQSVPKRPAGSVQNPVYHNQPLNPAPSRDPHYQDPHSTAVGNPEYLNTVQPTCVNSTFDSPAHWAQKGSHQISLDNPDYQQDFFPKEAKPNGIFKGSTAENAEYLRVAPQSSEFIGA
In words: EGFR kinase ELISA assay. The class given is biochemical. The note with it: colorimetric ELISA, mean ± SD of three separate experiments. The method, then: Percent inhibition was calculated by the comparison of compounds treated to control incubations.
Erlotinib, a clinically used EGFR inhibitor, was taken as the reference drug.
For orientation: ELISA stands for enzyme-linked immunosorbent assay.

A further data set deals with WI-38 cells. Kind of data set: In vitro cytotoxic activity, WI-38 cells (MTT). The class given is cell-based, human. The method, then:
WI-38 cells ([…]), were obtained from American Type Culture Collection. The cells were propagated in DMEM supplemented with 10% heat-inactivated FBS (Hyclone), 10 μg/ml of insulin (Sigma), and 1% penicillin-streptomycin. All of the other chemicals and reagents were from Sigma, or Invitrogen. Cytotoxicity was determined using MTT assay following a reported procedure.

Data set [1] relates to MDA-MB-231 cancer cell line. Particulars: cited from earlier work.

Where two headings read alike, the source gives them in different places.

In general, IC50 refers to the concentration needed to halve the response being measured. In turn, `COc1cccc2c1C(=O)c1c(O)c3c(c(O)c1C2=O)C[C@@](O)(C(=O)CO)C[C@@H]3O[C@H]1C[C@H](N)[C@H](O)[C@H](C)O1` [Adriamycin, reference compound] displayed a concentration for half-maximal inhibition (IC50) with MDA-MB-231 cells of 0.12 µM.
The melting point is the temperature, or range, at which the solid turns liquid. In turn, `Cc1ccc(C2=C(C#N)C3(C(=O)Nc4ccccc43)c3c(-c4cccs4)nn(-c4ccccc4)c3N2)cc1` (stereo not drawn) [Compound 6b, 2-Oxo-1'-phenyl-3'-(thiophen-2-yl)-6'-(p-tolyl)-1',7'-dihydrospiro[indoline-3,4'-pyrazolo[3,4-b]pyridine]-5'-carbonitrile] showed a melting point of 285 to 287 °C. In addition, the half-maximal inhibitory concentration (IC50) in the data set with MDA-MB-231 cells turned out to be 29.7 µM.
For `COc1ccc(C2=C(C#N)C3(C(=O)Nc4ccccc43)c3c(-c4cccs4)nn(-c4ccccc4)c3N2)cc1` (stereo not drawn) [Compound 6c, 6'-(4-Methoxyphenyl)-2-oxo-1'-phenyl-3'-(thiophen-2-yl)-1',7'-dihydrospiro[indoline-3,4'-pyrazolo[3,4-b]pyridine]-5'-carbonitrile], the melting point lay within 296 to 298 °C. Also, half-maximal inhibition in the data set with MDA-MB-231 cells (IC50) required 37.8 µM.
`N#CC1=C(c2ccc(Cl)cc2)Nc2c(c(-c3cccs3)nn2-c2ccccc2)C12C(=O)Nc1ccccc12` (stereo not drawn) [Compound 6d, 6'-(4-Chlorophenyl)-2-oxo-1'-phenyl-3'-(thiophen-2-yl)-1',7'-dihydrospiro[indoline-3,4'-pyrazolo[3,4-b]pyridine]-5'-carbonitrile] gave a melting point of 279 to 281 °C. For the same molecule, the IC50 in the data set on MDA-MB-231 cells was 12 µM. On EGFR, this molecule returned a concentration for half-maximal inhibition (IC50) of 0.36 ± 0.02 µM.
As for `Cc1ccc(C2=C(C#N)C3(C(=O)Nc4ccc(Cl)cc43)c3c(-c4cccs4)nn(-c4ccccc4)c3N2)cc1` (stereo not drawn) [Compound 6f, 5-Chloro-2-oxo-1'-phenyl-3'-(thiophen-2-yl)-6'-(p-tolyl)-1',7'-dihydrospiro[indoline-3,4'-pyrazolo[3,4-b]pyridine]-5'-carbonitrile], the melting point was in the range of 286 to 288 °C. This molecule also displayed an IC50 with MDA-MB-231 cells of 18.2 µM.
As to `COc1ccc(C2=C(C#N)C3(C(=O)Nc4ccc(Cl)cc43)c3c(-c4cccs4)nn(-c4ccccc4)c3N2)cc1` (stereo not drawn) [Compound 6g, 5-Chloro-6'-(4-methoxyphenyl)-2-oxo-1'-phenyl-3'-(thiophen-2-yl)-1',7'-dihydrospiro[indoline-3,4'-pyrazolo[3,4-b]pyridine]-5'-carbonitrile], the melting point was over 300 °C. The concentration for half-maximal inhibition (IC50) in the data set on MDA-MB-231 cells was found to be 24.1 µM.
In turn, `N#CC1=C(c2ccc(Cl)cc2)Nc2c(c(-c3cccs3)nn2-c2ccccc2)C12C(=O)Nc1ccc(Cl)cc12` (stereo not drawn) [Compound 6h, 5-Chloro-6'-(4-chlorophenyl)-2-oxo-1'-phenyl-3'-(thiophen-2-yl)-1',7'-dihydrospiro[indoline-3,4'-pyrazolo[3,4-b]pyridine]-5'-carbonitrile] displayed a melting point of 281 to 283 °C. In the data set with MDA-MB-231 cells, this molecule had an IC50 of 16.6 µM.
Regarding `N#CC1=C(c2ccccc2)Nc2c(c(-c3cccs3)nn2-c2ccccc2)C12C(=O)Nc1ccc(Br)cc12` (stereo not drawn) [Compound 6i, 5-Bromo-2-oxo-1',6'-diphenyl-3'-(thiophen-2-yl)-1',7'-dihydrospiro[indoline-3,4'-pyrazolo[3,4-b]pyridine]-5'-carbonitrile], the IC50 with MDA-MB-231 cells came out at 6.7 µM; at EGFR it was 0.12 ± 0.01 µM; with WI-38 cells (WI-38, MTT assay, human normal lung fibroblast cell line, read-out: IC50 (µM) WI-38), 39.3 µM. In addition, in the data set with WI-38 cells (WI-38 versus MDA-MB-231), the “Selectivity Index” value is recorded as 5.9.
`Cc1ccc(C2=C(C#N)C3(C(=O)Nc4ccc(Br)cc43)c3c(-c4cccs4)nn(-c4ccccc4)c3N2)cc1` (stereo not drawn) [Compound 6j, 5-Bromo-2-oxo-1'-phenyl-3'-(thiophen-2-yl)-6'-(p-tolyl)-1',7'-dihydrospiro[indoline-3,4'-pyrazolo[3,4-b]pyridine]-5'-carbonitrile] showed a melting point of 282 to 284 °C. Further, the IC50 with MDA-MB-231 cells came to 13.5 µM. Besides, at EGFR, the IC50 was found to be 0.51 ± 0.04 µM.
For the molecule `COc1ccc(C2=C(C#N)C3(C(=O)Nc4ccc(Br)cc43)c3c(-c4cccs4)nn(-c4ccccc4)c3N2)cc1` (stereo not drawn) [Compound 6k, 5-Bromo-6'-(4-methoxyphenyl)-2-oxo-1'-phenyl-3'-(thiophen-2-yl)-1',7'-dihydrospiro[indoline-3,4'-pyrazolo[3,4-b]pyridine]-5'-carbonitrile], the melting point is over 300 °C. In the data set on MDA-MB-231 cells, the half-maximal inhibitory concentration (IC50) was found to be 12.7 µM. Besides, on EGFR, it took 0.31 ± 0.02 µM to reach half-maximal inhibition (IC50).
In turn, `N#CC1=C(c2ccc(Cl)cc2)Nc2c(c(-c3cccs3)nn2-c2ccccc2)C12C(=O)Nc1ccc(Br)cc12` (stereo not drawn) [Compound 6l, 5-Bromo-6'-(4-chlorophenyl)-2-oxo-1'-phenyl-3'-(thiophen-2-yl)-1',7'-dihydrospiro[indoline-3,4'-pyrazolo[3,4-b]pyridine]-5'-carbonitrile] displayed a melting point of 293 to 294 °C. In the data set on MDA-MB-231 cells, this molecule showed an IC50 of 30.6 µM.
Take `COc1ccc2c(c1)C1(C(=O)N2)C(C#N)=C(c2ccccc2)Nc2c1c(-c1cccs1)nn2-c1ccccc1` (stereo not drawn) [Compound 6m, 5-Methoxy-2-oxo-1',6'-diphenyl-3'-(thiophen-2-yl)-1',7'-dihydrospiro[indoline-3,4'-pyrazolo[3,4-b]pyridine]-5'-carbonitrile]: the melting point is 276 to 278 °C. This molecule also displayed an IC50 in the data set on MDA-MB-231 cells of 17.5 µM.
The corresponding values for `COc1ccc2c(c1)C1(C(=O)N2)C(C#N)=C(c2ccc(C)cc2)Nc2c1c(-c1cccs1)nn2-c1ccccc1` (stereo not drawn) [Compound 6n, 5-Methoxy-2-oxo-1'-phenyl-3'-(thiophen-2-yl)-6'-(p-tolyl)-1',7'-dihydrospiro[indoline-3,4'-pyrazolo[3,4-b]pyridine]-5'-carbonitrile] are 268 to 269 °C and over 50 µM.
The corresponding values for `COc1ccc(C2=C(C#N)C3(C(=O)Nc4ccc(OC)cc43)c3c(-c4cccs4)nn(-c4ccccc4)c3N2)cc1` (stereo not drawn) [Compound 6o, 5-Methoxy-6'-(4-methoxyphenyl)-2-oxo-1'-phenyl-3'-(thiophen-2-yl)-1',7'-dihydrospiro[indoline-3,4'-pyrazolo[3,4-b]pyridine]-5'-carbonitrile] are 279 to 281 °C and over 50 µM.
The corresponding values for `COc1ccc2c(c1)C1(C(=O)N2)C(C#N)=C(c2ccc(Cl)cc2)Nc2c1c(-c1cccs1)nn2-c1ccccc1` (stereo not drawn) [Compound 6p, 6'-(4-Chlorophenyl)-5-methoxy-2-oxo-1'-phenyl-3'-(thiophen-2-yl)-1',7'-dihydrospiro[indoline-3,4'-pyrazolo[3,4-b]pyridine]-5'-carbonitrile] are 255 to 257 °C and over 50 µM.
Turning to `CC(C)OC(=O)C1=C(N)OC2=C(C(=O)OC2)C12C(=O)Nc1ccc(Cl)cc12` (stereo not drawn) [compound (i)], the IC50 in data set [1] (read-out: IC50, cytotoxic activity against MDA-MB-231) is 11 µM.
As to `O=C(c1ccc(OCCN2CCCC2)cc1)C1C(c2ccccc2)C2CSC(c3ccccc3)N2C12C(=O)Nc1ccc(Cl)cc12` (stereo not drawn) [compound (iv)], the half-inhibitory concentration (IC50) in data set [1] (reported compound of Figure 1, reference not given, read-out: IC50, cytotoxicity against MDA-MB-231) is 4.2 µM.
